Data: PubChem BioAssay (NCI)
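Cells were grown in 96-well plates and exposed to each compound for 48 hours at five concentrations; endpoints were interpolated linearly between bracketing concentrations, or set to the highest concentration if not reached. TGI: concentration producing complete growth inhibition.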

Assays:
Assay in all cases: inhibition of tumour cell growth, NCI panel, 48 h
HT29 colon = test system: HT29 colon
SK-OV-3 ovarian = test system: SK-OV-3 ovarian
UACC-62 melanoma = test system: UACC-62 melanoma
BT-549 breast = test system: BT-549 breast
A549 NSCLC = test system: A549 NSCLC
SF-295 CNS = test system: SF-295 CNS
HCT-15 colon = test system: HCT-15 colon
COLO 205 colon = test system: COLO 205 colon
OVCAR-8 ovarian = test system: OVCAR-8 ovarian
HOP-62 NSCLC = test system: HOP-62 NSCLC
SK-MEL-2 melanoma = test system: SK-MEL-2 melanoma
T-47D breast = test system: T-47D breast
RXF 393 renal = test system: RXF 393 renal
OVCAR-4 ovarian = test system: OVCAR-4 ovarian
TK-10 renal = test system: TK-10 renal
SN12C renal = test system: SN12C renal
MDA-MB-231 breast = test system: MDA-MB-231 breast
ACHN renal = test system: ACHN renal
EKVX NSCLC = test system: EKVX NSCLC
HCC-2998 colon = test system: HCC-2998 colon
HCT-116 colon = test system: HCT-116 colon
UO-31 renal = test system: UO-31 renal
OVCAR-3 ovarian = test system: OVCAR-3 ovarian
MCF7 breast = test system: MCF7 breast
PC-3 prostate = test system: PC-3 prostate
MALME-3M melanoma = test system: MALME-3M melanoma
UACC-257 melanoma = test system: UACC-257 melanoma
OVCAR-5 ovarian = test system: OVCAR-5 ovarian
SF-268 CNS = test system: SF-268 CNS
NCI/ADR-RES ovarian = test system: NCI/ADR-RES ovarian
NCI-H522 lung = test system: NCI-H522 lung
RPMI-8226 leukemia = test system: RPMI-8226 leukemia
HL-60(TB) leukemia = test system: HL-60(TB) leukemia
SNB-75 CNS = test system: SNB-75 CNS
KM12 colon = test system: KM12 colon
M14 melanoma = test system: M14 melanoma
SF-539 CNS = test system: SF-539 CNS
NCI-H23 lung = test system: NCI-H23 lung
786-0 renal = test system: 786-0 renal
DU-145 prostate = test system: DU-145 prostate
HS 578T breast = test system: HS 578T breast
MDA-N = test system: MDA-N
NCI-H460 lung = test system: NCI-H460 lung
IGROV1 ovarian = test system: IGROV1 ovarian
NCI-H226 lung = test system: NCI-H226 lung
SK-MEL-5 melanoma = test system: SK-MEL-5 melanoma
A498 renal = test system: A498 renal
CCRF-CEM leukemia = test system: CCRF-CEM leukemia
K-562 leukemia = test system: K-562 leukemia
SNB-19 CNS = test system: SNB-19 CNS
SK-MEL-28 melanoma = test system: SK-MEL-28 melanoma
CAKI-1 renal = test system: CAKI-1 renal
SW-620 colon = test system: SW-620 colon
LOX IMVI melanoma = test system: LOX IMVI melanoma
U251 CNS = test system: U251 CNS
MDA-MB-435 = test system: MDA-MB-435

## O=C1c2c(O)ccc(O)c2C(=O)c2c(NCCNC(=O)C(O)C(O)C(O)C(O)CO)ccc(NCCNC(=O)C(O)C(O)C(O)C(O)CO)c21 (centres undefined)
HT29 colon
  TGI: 399 nM
SK-OV-3 ovarian
  TGI: 1410 nM
UACC-62 melanoma
  TGI: 1040 nM
BT-549 breast
  TGI: 2360 nM
A549 NSCLC
  TGI: 1530 nM
SF-295 CNS
  TGI: 29.1 nM
HCT-15 colon
  TGI: 1040 nM
COLO 205 colon
  TGI: 578 nM
OVCAR-8 ovarian
  TGI: 528 nM
HOP-62 NSCLC
  TGI: 1130 nM
SK-MEL-2 melanoma
  TGI: 2880 nM
T-47D breast
  TGI: 2350 nM
RXF 393 renal
  TGI: 812 nM
OVCAR-4 ovarian
  TGI: 771 nM
TK-10 renal
  TGI: 1370 nM
SN12C renal
  TGI: 11.8 nM
MDA-MB-231 breast
  TGI: 633 nM
ACHN renal
  TGI: 101 nM
EKVX NSCLC
  TGI: 1420 nM
HCC-2998 colon
  TGI: 483 nM
HCT-116 colon
  TGI: 197 nM
UO-31 renal
  TGI: 352 nM
OVCAR-3 ovarian
  TGI: 2290 nM
MCF7 breast
  TGI: 243 nM
PC-3 prostate
  TGI: 1510 nM
MALME-3M melanoma
  TGI: 2650 nM
UACC-257 melanoma
  TGI: 7240 nM
OVCAR-5 ovarian
  TGI: 1880 nM
SF-268 CNS
  TGI: 1980 nM
NCI/ADR-RES ovarian
  TGI: 2240 nM
NCI-H522 lung
  TGI: 218 nM
RPMI-8226 leukemia
  TGI: 202 nM
HL-60(TB) leukemia
  TGI: 14.9 nM
SNB-75 CNS
  TGI: 1230 nM
KM12 colon
  TGI: 534 nM
M14 melanoma
  TGI: 1390 nM
SF-539 CNS
  TGI: 440 nM
NCI-H23 lung
  TGI: 417 nM
786-0 renal
  TGI: 53.1 nM
DU-145 prostate
  TGI: 254 nM
HS 578T breast
  TGI: 2700 nM
MDA-N
  TGI: 601 nM
NCI-H460 lung
  TGI: 15.9 nM
IGROV1 ovarian
  TGI: 1450 nM
NCI-H226 lung
  TGI: 524 nM
SK-MEL-5 melanoma
  TGI: 522 nM

## Nc1cnc(Nc2cccc3ccccc23)o1
HT29 colon
  TGI: > 10000 nM
SK-OV-3 ovarian
  TGI: > 10000 nM
UACC-62 melanoma
  TGI: > 10000 nM
A549 NSCLC
  TGI: > 10000 nM
SF-295 CNS
  TGI: > 10000 nM
HCT-15 colon
  TGI: > 10000 nM
COLO 205 colon
  TGI: > 10000 nM
A498 renal
  TGI: > 10000 nM
OVCAR-8 ovarian
  TGI: > 10000 nM
HOP-62 NSCLC
  TGI: > 10000 nM
SK-MEL-2 melanoma
  TGI: > 10000 nM
T-47D breast
  TGI: > 10000 nM
RXF 393 renal
  TGI: > 10000 nM
OVCAR-4 ovarian
  TGI: > 10000 nM
TK-10 renal
  TGI: > 10000 nM
SN12C renal
  TGI: > 10000 nM
MDA-MB-231 breast
  TGI: > 10000 nM
ACHN renal
  TGI: > 10000 nM
EKVX NSCLC
  TGI: > 10000 nM
HCC-2998 colon
  TGI: > 10000 nM
HCT-116 colon
  TGI: > 10000 nM
CCRF-CEM leukemia
  TGI: > 10000 nM
K-562 leukemia
  TGI: > 10000 nM
SNB-19 CNS
  TGI: > 10000 nM
UO-31 renal
  TGI: > 10000 nM
OVCAR-3 ovarian
  TGI: > 10000 nM
MCF7 breast
  TGI: > 10000 nM
PC-3 prostate
  TGI: > 10000 nM
MALME-3M melanoma
  TGI: > 10000 nM
SK-MEL-28 melanoma
  TGI: > 10000 nM
UACC-257 melanoma
  TGI: > 10000 nM
CAKI-1 renal
  TGI: > 10000 nM
SW-620 colon
  TGI: > 10000 nM
LOX IMVI melanoma
  TGI: > 10000 nM
SF-268 CNS
  TGI: > 10000 nM
NCI/ADR-RES ovarian
  TGI: > 10000 nM
NCI-H522 lung
  TGI: > 10000 nM
U251 CNS
  TGI: > 10000 nM
HL-60(TB) leukemia
  TGI: > 10000 nM
SNB-75 CNS
  TGI: > 10000 nM
KM12 colon
  TGI: > 10000 nM
MDA-MB-435
  TGI: > 10000 nM
M14 melanoma
  TGI: > 10000 nM
SF-539 CNS
  TGI: > 10000 nM
NCI-H23 lung
  TGI: > 10000 nM
786-0 renal
  TGI: > 10000 nM
DU-145 prostate
  TGI: > 10000 nM
HS 578T breast
  TGI: > 10000 nM
MDA-N
  TGI: > 10000 nM
NCI-H460 lung
  TGI: > 10000 nM
IGROV1 ovarian
  TGI: > 10000 nM
NCI-H226 lung
  TGI: > 10000 nM
SK-MEL-5 melanoma
  TGI: > 10000 nM
